Test results taken from patent US9187467B2, “2-phenyl benzothiazole linked imidazole compounds as potential anticancer agents and process for the preparation thereof” (Council of Scientific and Industrial Research, priority 2012, dated 2015).
Read-outs that look alike come from different tables or passages of the source.

Columns and labels:
[1] = test system: T-47D; assay: SRB anticancer assay, breast; type: cell-based; settings: Homo sapiens, T47D, 48 h
[2] = test system: HCT-116; assay: SRB anticancer assay, colon; type: cell-based, human; settings: Homo sapiens, HCT-116, 48 h
[3] = test system: A498; assay: SRB anticancer assay, renal; type: cell-based, human; set-up: Log10GI50: unit not given here
[4] = test system: MALME-3M; assay: SRB anticancer assay, melanoma; type: cell-based, human; set-up: Log10GI50: unit not given here
[5] = test system: TK-10; assay: SRB anticancer assay, renal; type: cell-based, human; settings: Homo sapiens, TK-10, 48 h
[6] = test system: MDA-MB-231/ATCC; assay: SRB anticancer assay, breast; type: cell-based, human; set-up: Log10GI50: unit not given here; settings: for GI50: Homo sapiens, MDA-MB-231, 48 h, 48 h, read-out: GI50
[7] = test system: OVCAR-3; assay: SRB anticancer assay, ovarian; type: cell-based, human; set-up: Log10GI50: unit not given here
[8] = test system: UO-31; assay: SRB anticancer assay, renal; type: cell-based, human; set-up: Log10GI50: unit not given here
[9] = test system: A549/ATCC; assay: SRB anticancer assay, non-small lung; type: cell-based, human; set-up: Log10GI50: unit not given here
[10] = test system: MCF7; assay: SRB anticancer assay, breast; type: cell-based, human; settings: Homo sapiens, MCF7, 48 h
[11] = test system: NCI-H226; assay: SRB anticancer assay, non-small lung; type: cell-based, human; settings: Homo sapiens, NCI-H226, 48 h
[12] = test system: SF-268; assay: SRB anticancer assay, CNS; type: cell-based, human; set-up: Log10GI50: unit not given here
[13] = test system: OVCAR-4; assay: SRB anticancer assay, ovarian; type: cell-based, human; settings: Homo sapiens, OVCAR-4, 48 h
[14] = test system: NCI-H23; assay: SRB anticancer assay, non-small lung; type: cell-based, human
[15] = test system: SK-MEL-5; assay: SRB anticancer assay, melanoma; type: cell-based, human; settings: Homo sapiens, SK-MEL-5, 48 h
[16] = test system: DU-145; assay: SRB anticancer assay, prostate; type: cell-based, human; set-up: Log10GI50: unit not given here
[17] = test system: SF-295; assay: SRB anticancer assay, CNS; type: cell-based, human; set-up: Log10GI50: unit not given here
[18] = test system: Breast cancer cell lines; assay: SRB anticancer assay, panel result; type: cell-based, human
Protocol: (§1) The compounds were evaluated for anticancer activity against sixty human cancer cells derived from nine cancer types (leukemia cell line, non-small-cell lung cell line, colon cell line, CNS cell line, melanoma cell line, ovarian cell line, prostate cell line, renal cancer cell line and breast cancer cell line) as shown in Table 1. For each compound, dose response curves for each cell line were measured at a minimum of five concentrations at 10 fold dilutions. A protocol of 48 h continuous drug exposure was used and a sulforhodamine B (SRB) protein assay was used to estimate cell viability or growth.

[19] = test system: Ovarian cancer cell lines; assay: SRB anticancer assay, panel result; type: cell-based, human
Protocol: as §1

[20] = test system: Leukemia cancer cell lines; assay: SRB anticancer assay, panel result; type: cell-based, human
Protocol: as §1

[21] = test system: Colon cancer cell lines; assay: SRB anticancer assay, panel result; type: cell-based, human
Protocol: as §1

[22] = test system: Renal cancer cell lines; assay: SRB anticancer assay, panel result; type: cell-based, human
Protocol: as §1

[23] = test system: Melanoma cancer cell lines; assay: SRB anticancer assay, panel result; type: cell-based, human
Protocol: as §1

[24] = test system: CNS cancer cell lines; assay: SRB anticancer assay, panel result; type: cell-based, human
Protocol: as §1

[25] = test system: Prostate cancer cell lines; assay: SRB anticancer assay, panel result; type: cell-based, human
Protocol: as §1

[26] = test system: Non-small cell lung cancer cell lines; assay: SRB anticancer assay, panel result; type: cell-based, human
Protocol: as §1

[27] = test system: LOX IMVI; assay: SRB anticancer assay, melanoma; type: cell-based, human; set-up: Log10GI50: unit not given here

COc1cc2nc(-c3ccc(-n4cncc4-c4ccc(N)cc4)cc3)sc2c(OC)c1OC [Compound 7h, 4-(1-(4-(5,6,7-Trimethoxybenzo[d]thiazol-2-yl)phenyl)-1H-imidazol-5-yl)benzenamine]
GI50 [1]: 1.82 µM
GI50 [2]: 3.81 µM
Log10GI50 ([3]; A498, present compounds): −5.67
GI50 ([3]; Homo sapiens, A498, 48 h): 2.13 µM
GI50 ([4]; Homo sapiens, Malme-3M, 48 h): 0.71 µM
Log10GI50 ([4]; MALME-3M, present compounds): −6.15
GI50 [5]: 4.93 µM
GI50 ([6]; MDA-MB-231/ATCC (row head MDA-MB-)): 3.65 µM
GI50 ([6]; row head printed 231/ATCC (second line of MDA-MB-231/ATCC)): 5.36 µM
Log10GI50 ([6]; MDA-MB-231/ATCC, present compounds): −5.44
GI50 ([7]; Homo sapiens, OVCAR-3, 48 h): 2.73 µM
Log10GI50 ([7]; OVCAR-3, present compounds): −5.56
GI50 ([8]; Homo sapiens, UO-31, 48 h): 1.55 µM
Log10GI50 ([8]; UO-31, present compounds): −5.81
GI50 ([9]; Homo sapiens, 48 h): 3.14 µM
Log10GI50 ([9]; present compounds): −5.50
GI50 [10]: 3.02 µM
GI50 [11]: 4.73 µM
GI50 ([12]; Homo sapiens, SF-268, 48 h): 12.3 µM
Log10GI50 ([12]; SF-268, present compounds): −4.91
GI50 [13]: 3.6 µM
GI50 ([14]; Homo sapiens, NCI-H23, 48 h): 3.87 µM
Log10GI50 ([14]; NCI-H23, present compounds): −5.41 log10(M)
GI50 [15]: 2.74 µM
Log10GI50 ([16]; DU-145, present compounds): −5.04
GI50 ([16]; Homo sapiens, DU-145, 48 h): 7.25 µM
GI50 ([17]; Homo sapiens, SF-295, 48 h): 1.53 µM
Log10GI50 ([17]; SF-295, present compounds): −5.82
mean graph midpoint value (MG_MID) of log10 TGI ([18]; Breast panel, total inhibition of net cell growth): −4.47
CC50 ([18]; Homo sapiens, Breast panel, 50% net cell death, read-out: mean graph midpoint value (MG_MID) of Log10 LC50 (converted)): > 100 µM
GI50 ([18]; Homo sapiens, Breast panel, read-out: mean graph midpoint value (MG_MID) of Log10 GI50 (converted)): 2.82 µM
GI50 ([18]; Homo sapiens, six breast cancer cell lines, exposure at least 48 h, read-out: GI50, range over the panel): 1.59 to 5.36 µM
LC50 ([19]; Homo sapiens, Ovarian panel, 50% net cell death, read-out: mean graph midpoint value (MG_MID) of Log10 LC50 (converted)): 89.1 µM
GI50 ([19]; Homo sapiens, Ovarian panel, read-out: mean graph midpoint value (MG_MID) of Log10 GI50 (converted)): 5.01 µM
GI50 ([19]; Homo sapiens, seven ovarian cancer cell lines, exposure at least 48 h, read-out: GI50, range over the panel): 1.61 to 34.3 µM
mean graph midpoint value (MG_MID) of log10 TGI ([19]; Ovarian panel, total inhibition of net cell growth): −4.56
LC50 ([20]; Homo sapiens, Leukemia panel, 50% net cell death, read-out: mean graph midpoint value (MG_MID) of Log10 LC50 (converted)): > 100 µM
GI50 ([20]; Homo sapiens, Leukemia panel, read-out: mean graph midpoint value (MG_MID) of Log10 GI50 (converted)): 1.2 µM
GI50 ([20]; Homo sapiens, six leukemia cancer cell lines, exposure at least 48 h, read-out: GI50, range over the panel): 0.989 to 1.4 µM
mean graph midpoint value (MG_MID) of log10 TGI ([20]; Leukemia panel, total inhibition of net cell growth): >−4.0
mean graph midpoint value (MG_MID) of log10 TGI ([21]; Colon panel, total inhibition of net cell growth): >−4.0
LC50 ([21]; Homo sapiens, Colon panel, 50% net cell death, read-out: mean graph midpoint value (MG_MID) of Log10 LC50 (converted)): > 100 µM
GI50 ([21]; Homo sapiens, Colon panel, read-out: mean graph midpoint value (MG_MID) of Log10 GI50 (converted)): 3.31 µM
GI50 ([21]; Homo sapiens, seven colon cancer cell lines, exposure at least 48 h, read-out: GI50, range over the panel): 2.79 to 3.81 µM
CC50 ([22]; Homo sapiens, Renal panel, 50% net cell death, read-out: mean graph midpoint value (MG_MID) of Log10 LC50 (converted)): 95.5 µM
GI50 ([22]; Homo sapiens, Renal panel, read-out: mean graph midpoint value (MG_MID) of Log10 GI50 (converted)): 3.89 µM
GI50 ([22]; Homo sapiens, eight renal cancer cell lines, exposure at least 48 h, read-out: GI50, range over the panel): 1.41 to 8.95 µM
mean graph midpoint value (MG_MID) of log10 TGI ([22]; Renal panel, total inhibition of net cell growth): −4.38
LC50 ([23]; Homo sapiens, Melanoma panel, 50% net cell death, read-out: mean graph midpoint value (MG_MID) of Log10 LC50 (converted)): 97.7 µM
GI50 ([23]; Homo sapiens, Melanoma panel, read-out: mean graph midpoint value (MG_MID) of Log10 GI50 (converted)): 4.79 µM
GI50 ([23]; Homo sapiens, nine melanoma cancer cell lines, exposure at least 48 h, read-out: GI50, range over the panel): 0.71 to 6.4 µM
mean graph midpoint value (MG_MID) of log10 TGI ([23]; Melanoma panel, total inhibition of net cell growth): −4.13
mean graph midpoint value (MG_MID) of log10 TGI ([24]; CNS panel, total inhibition of net cell growth): −4.51
CC50 ([24]; Homo sapiens, CNS panel, 50% net cell death, read-out: mean graph midpoint value (MG_MID) of Log10 LC50 (converted)): 66.1 µM
GI50 ([24]; Homo sapiens, CNS panel, read-out: mean graph midpoint value (MG_MID) of Log10 GI50 (converted)): 5.75 µM
GI50 ([24]; Homo sapiens, six CNS cancer cell lines, exposure at least 48 h, read-out: GI50, range over the panel): 1.53 to 12.3 µM
LC50 ([25]; Homo sapiens, Prostate panel, 50% net cell death, read-out: mean graph midpoint value (MG_MID) of Log10 LC50 (converted)): > 100 µM
GI50 ([25]; Homo sapiens, Prostate panel, read-out: mean graph midpoint value (MG_MID) of Log10 GI50 (converted)): 4.68 µM
GI50 ([25]; Homo sapiens, two prostate cancer cell lines (PC-3, DU-145), exposure at least 48 h, read-out: GI50, range over the panel): 3.02 to 7.25 µM
mean graph midpoint value (MG_MID) of log10 TGI ([25]; Prostate panel, total inhibition of net cell growth): −4.15
LC50 ([26]; Homo sapiens, Non-small cell lung panel, 50% net cell death, read-out: mean graph midpoint value (MG_MID) of Log10 LC50 (converted)): 93.3 µM
GI50 ([26]; Homo sapiens, Non-small cell lung panel, read-out: mean graph midpoint value (MG_MID) of Log10 GI50 (converted)): 2.57 µM
GI50 ([26]; Homo sapiens, nine Non-small cell lung cancer cell lines, exposure at least 48 h, read-out: GI50, range over the panel): 0.446 to 5.13 µM
mean graph midpoint value (MG_MID) of log10 TGI ([26]; Non-small cell lung panel, total inhibition of net cell growth): −4.54
GI50 ([27]; Homo sapiens, 48 h): 3.65 µM
Log10GI50 ([27]; present compounds): −5.44
